Measurements as given in patent publication US9174965B2, “Pyrimidinylpiperidinyloxypyridone analogues as GPR119 modulators” (BRISTOL-MYERS SQUIBB COMPANY, priority 2012, dated 2015).
Converted amounts (≈) assume the structure as drawn.

Key:
Aqueous solubility assay = format: physicochemical; conditions: aqueous buffer, thermodynamic from solid; pH 6.5 phosphate buffer, room temperature, 18-24 h
Description: Approximately 0.75 mg of accurately weighed test compound was added to 1 mL of a pH 6.5 phosphate buffer (50 mM Potassium Phosphate Buffer) to make solutions with a nominal targeted concentration of 1 mM. The vial was then rotated on an orbital shaker at room temperature for 18-24 h. After equilibration time had been met, the test solution was centrifuge filtered through a 0.45 um membrane (Millipore Ultrafree Centrifugal Filters, Durapore PVDF 0.45 um). The filtrate was then analyzed by an Agilent HP1100 HPLC/UV at multiple wavelengths using diode array detection (e.g. 210, 230, 254 and 280 nm) against a previously generated calibration curve to determine compound concentration.
Find below in Table 9 data for compared compounds (See WO 2011/127106 A1).

[1] = Compound bioavailability assay in rats; format: in vivo; conditions: male, Sprague-Dawley, plasma, rat, oral
Description: Compound Bioavailability Assays
Male Sprague-Dawley rats (270-350 g) were used in the pharmokinetic studies. Two (2) groups of animals (N=3 per group) were fasted overnight and one group received test compound as an IV infusion dose (1 mg/kg over 10 minutes) via a jugular vein in PEG-400/propylene glycol/ethanol (50:40:10) or Cremophor-EL/PEG400/water (10:40:50, v/v/v). The other group received test compound by oral gavage (2 or 5 mg/kg) as either nano-suspension in Pluronic F-108/polyvinylpyrrolidinone/water (1:2.5:96.5, v/v/v) or in Methocel A4M/Tween 80/water (0.5:0.1:99.4, v/v/v) as suspension (partical size: d50=0.960 μm; d90=4.4 μm) for oral dosing. […]
Pharmacokinetic parameters were obtained by non-compartmental analysis of plasma concentration vs. time data (KINETICA™ software, Version 5.0, Thermo Fisher Scientific Corporation, Philadelphia, Pa.). The peak concentration (Cmax) and time for Cmax (Tmax) were recorded directly from experimental observations. The area under the curve from time zero to the last sampling time [AUC(0-T)] and the area under the curve from time zero to infinity [AUC(INF)] were calculated using a combination of linear and log trapezoidal summations. […] Estimations of AUC and T-HALF were made using a minimum of 3 timepoints with quantifiable concentrations. […]

[2] = molecular target: L-type calcium channel Cav1.2 (Homo sapiens (Human), UniProt Q13936); assay: Patch clamp electrophysiology assay, L-type calcium channel; format: cell-based; conditions: pH 7.35, HEK293, read-out: Ca % Inhibition
L-type calcium channel Cav1.2, sequence (Q13936 whole entry): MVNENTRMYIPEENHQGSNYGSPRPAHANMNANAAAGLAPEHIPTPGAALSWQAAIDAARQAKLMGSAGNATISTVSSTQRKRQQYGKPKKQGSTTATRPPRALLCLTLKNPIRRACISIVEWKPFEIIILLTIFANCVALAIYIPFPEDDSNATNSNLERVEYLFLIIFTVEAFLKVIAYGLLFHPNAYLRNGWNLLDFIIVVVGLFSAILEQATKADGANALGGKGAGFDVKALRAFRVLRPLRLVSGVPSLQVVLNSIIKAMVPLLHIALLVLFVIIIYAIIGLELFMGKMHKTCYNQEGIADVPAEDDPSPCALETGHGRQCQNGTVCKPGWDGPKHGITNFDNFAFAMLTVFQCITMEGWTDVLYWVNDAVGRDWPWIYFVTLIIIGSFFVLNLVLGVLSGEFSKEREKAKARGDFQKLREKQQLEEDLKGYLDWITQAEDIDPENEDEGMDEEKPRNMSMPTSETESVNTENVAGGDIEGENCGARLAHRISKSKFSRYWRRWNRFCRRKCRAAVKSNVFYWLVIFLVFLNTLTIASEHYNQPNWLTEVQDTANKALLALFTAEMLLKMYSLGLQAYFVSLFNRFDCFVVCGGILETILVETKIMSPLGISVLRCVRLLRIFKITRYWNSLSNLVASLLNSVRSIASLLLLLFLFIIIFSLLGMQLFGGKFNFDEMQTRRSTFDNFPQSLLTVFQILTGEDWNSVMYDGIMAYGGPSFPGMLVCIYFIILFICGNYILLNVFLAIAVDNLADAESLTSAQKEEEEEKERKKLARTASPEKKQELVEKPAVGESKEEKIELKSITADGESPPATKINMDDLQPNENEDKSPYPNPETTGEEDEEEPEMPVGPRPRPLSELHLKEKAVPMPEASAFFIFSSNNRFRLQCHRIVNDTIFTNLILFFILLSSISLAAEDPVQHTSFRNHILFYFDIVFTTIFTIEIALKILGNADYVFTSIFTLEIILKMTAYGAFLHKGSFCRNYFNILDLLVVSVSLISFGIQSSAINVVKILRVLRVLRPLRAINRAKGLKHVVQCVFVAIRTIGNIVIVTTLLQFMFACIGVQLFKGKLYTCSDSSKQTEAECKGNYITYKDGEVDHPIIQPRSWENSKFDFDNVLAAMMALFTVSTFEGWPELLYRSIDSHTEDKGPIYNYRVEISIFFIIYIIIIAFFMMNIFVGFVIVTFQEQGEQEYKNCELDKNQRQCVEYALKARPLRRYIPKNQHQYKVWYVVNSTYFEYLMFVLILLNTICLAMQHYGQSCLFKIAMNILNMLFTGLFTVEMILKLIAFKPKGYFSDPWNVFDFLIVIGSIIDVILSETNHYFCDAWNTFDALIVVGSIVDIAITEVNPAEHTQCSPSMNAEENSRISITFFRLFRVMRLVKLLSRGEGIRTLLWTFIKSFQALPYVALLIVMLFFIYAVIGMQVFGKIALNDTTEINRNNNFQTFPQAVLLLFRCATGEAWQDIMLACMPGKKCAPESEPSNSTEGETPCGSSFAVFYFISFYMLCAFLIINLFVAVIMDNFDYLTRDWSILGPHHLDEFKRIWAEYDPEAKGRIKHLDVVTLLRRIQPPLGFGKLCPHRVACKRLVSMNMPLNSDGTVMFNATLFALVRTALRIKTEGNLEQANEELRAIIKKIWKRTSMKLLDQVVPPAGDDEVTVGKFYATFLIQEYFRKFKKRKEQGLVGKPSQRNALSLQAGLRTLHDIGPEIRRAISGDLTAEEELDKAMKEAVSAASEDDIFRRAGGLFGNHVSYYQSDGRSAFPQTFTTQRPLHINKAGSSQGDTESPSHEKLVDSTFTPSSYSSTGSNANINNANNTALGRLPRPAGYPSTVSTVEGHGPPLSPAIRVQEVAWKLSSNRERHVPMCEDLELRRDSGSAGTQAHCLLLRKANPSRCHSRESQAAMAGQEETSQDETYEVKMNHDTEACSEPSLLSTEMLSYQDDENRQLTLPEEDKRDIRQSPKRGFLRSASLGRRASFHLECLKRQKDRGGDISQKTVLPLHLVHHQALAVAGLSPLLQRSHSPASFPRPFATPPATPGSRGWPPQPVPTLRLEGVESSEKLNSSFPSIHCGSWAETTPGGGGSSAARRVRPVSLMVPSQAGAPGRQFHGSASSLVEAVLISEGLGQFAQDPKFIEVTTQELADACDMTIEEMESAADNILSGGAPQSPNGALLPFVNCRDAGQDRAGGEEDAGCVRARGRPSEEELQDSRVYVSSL
L-type calcium channel Cav1.2, sequence (Q08289 whole entry partner): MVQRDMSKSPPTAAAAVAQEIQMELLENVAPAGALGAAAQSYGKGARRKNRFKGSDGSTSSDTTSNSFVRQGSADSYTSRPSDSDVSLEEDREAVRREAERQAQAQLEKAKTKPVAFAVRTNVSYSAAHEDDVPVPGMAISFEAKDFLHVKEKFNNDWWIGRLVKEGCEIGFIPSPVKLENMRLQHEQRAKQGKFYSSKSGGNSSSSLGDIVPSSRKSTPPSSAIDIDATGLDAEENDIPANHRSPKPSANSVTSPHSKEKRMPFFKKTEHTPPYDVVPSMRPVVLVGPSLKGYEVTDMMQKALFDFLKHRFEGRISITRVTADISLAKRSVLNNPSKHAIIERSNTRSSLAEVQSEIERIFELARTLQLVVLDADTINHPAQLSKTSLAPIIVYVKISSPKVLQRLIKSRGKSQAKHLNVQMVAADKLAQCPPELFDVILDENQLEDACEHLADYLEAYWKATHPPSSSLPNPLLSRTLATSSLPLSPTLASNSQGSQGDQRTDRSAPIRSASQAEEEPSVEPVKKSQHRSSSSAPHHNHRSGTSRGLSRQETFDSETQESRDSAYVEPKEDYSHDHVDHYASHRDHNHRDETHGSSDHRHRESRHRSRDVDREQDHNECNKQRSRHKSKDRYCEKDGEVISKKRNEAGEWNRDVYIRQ
L-type calcium channel Cav1.2, sequence (P54289 25-1103 partner): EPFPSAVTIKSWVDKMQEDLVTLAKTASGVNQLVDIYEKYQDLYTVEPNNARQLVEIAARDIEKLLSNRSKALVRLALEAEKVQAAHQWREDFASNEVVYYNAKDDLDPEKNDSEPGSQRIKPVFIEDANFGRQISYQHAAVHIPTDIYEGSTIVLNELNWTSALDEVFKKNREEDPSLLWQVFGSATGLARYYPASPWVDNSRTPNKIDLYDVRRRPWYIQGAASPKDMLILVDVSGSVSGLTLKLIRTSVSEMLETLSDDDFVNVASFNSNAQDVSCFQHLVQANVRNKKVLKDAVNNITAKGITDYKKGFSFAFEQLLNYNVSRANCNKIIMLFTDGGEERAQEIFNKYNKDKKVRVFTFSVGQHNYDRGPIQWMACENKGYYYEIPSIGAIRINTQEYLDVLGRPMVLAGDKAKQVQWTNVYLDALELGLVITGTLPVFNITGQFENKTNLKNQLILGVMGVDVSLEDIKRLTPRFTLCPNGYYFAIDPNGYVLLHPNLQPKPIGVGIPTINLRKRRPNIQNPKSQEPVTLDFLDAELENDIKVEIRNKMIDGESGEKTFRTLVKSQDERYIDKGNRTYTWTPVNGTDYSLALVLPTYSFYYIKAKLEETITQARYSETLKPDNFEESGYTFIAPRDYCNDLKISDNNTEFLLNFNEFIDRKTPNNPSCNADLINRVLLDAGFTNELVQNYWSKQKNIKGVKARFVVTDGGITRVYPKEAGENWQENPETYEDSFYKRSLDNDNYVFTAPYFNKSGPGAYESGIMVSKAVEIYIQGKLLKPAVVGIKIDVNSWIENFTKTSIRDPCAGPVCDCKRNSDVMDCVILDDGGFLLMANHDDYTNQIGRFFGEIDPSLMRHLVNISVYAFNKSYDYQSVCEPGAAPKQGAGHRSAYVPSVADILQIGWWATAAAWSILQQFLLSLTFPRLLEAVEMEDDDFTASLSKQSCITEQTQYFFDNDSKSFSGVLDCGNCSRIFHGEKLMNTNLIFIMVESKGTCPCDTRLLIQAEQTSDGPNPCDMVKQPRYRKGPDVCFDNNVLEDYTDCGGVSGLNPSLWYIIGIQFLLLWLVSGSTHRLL
Description: Compound Electrophysiology Assays
Recombinant ion channels (hERG, sodium [SCN5A], and L-type calcium [Cav1.2]) stably expressed in human embryonic kidney cells (HEK293) are used as test systems, and each system is tested using 2-3 replicates in the conventional patch clamp assay.
Ion channel membrane current recordings are made with a Multiclamp 700 series integrating patch-clamp amplifier (Axon Instruments, Foster City, Calif.) using the whole-cell variant of the patch-clamp technique.
Cells expressing hERG, sodium [SCN5A], or L-type calcium [Cav1.2] channels are placed in a plexiglass bath chamber, mounted on the stage of an inverted microscope, and perfused continuously with bath solution. […]
L-type calcium currents are elicited by 200 ms step depolarizations applied from a holding potential of −50 mV to a test potential of +30 mV. The voltage steps are applied in 5 second intervals (0.2 Hz) and the peak inward current is recorded. […] The peak inward current is monitored until a new steady-state in the presence of test article is achieved.
Compounds are tested in 3 cells at each concentration in each ion channel assay. […] All currents were recorded at room temperature ˜25° C. IC50 values are calculated using the sigmoidal concentration-response equation Y=A+((B−A)/(1+((C/X)^D))) in XLfit where A and B are the minimum and maximum % inhibition, C is the IC50 and D is the slope factor. […]

in vitro = conditions: human, microsomes, pH 7.4
Description: Metabolic Stability in Liver Microsomes Test
The test compound was received as a 3.5 mM stock solution in 100 percent dimethyl sulfoxide (“DMSO”, Sigma Aldritch). The compound solution was diluted to create a 50 μM acetonitrile (“ACN”, Sigma Aldritch) solution containing 1.4% DMSO, which is then used as a 100-fold stock for incubation with microsomes. The test compound, β-nicotinamide adenine dinucleotide phosphate (“NADPH”, AppliChem Inc.) and liver microsome solutions are combined for incubation in three steps:
1) 450 μl of liver microsome suspension, protein concentration of 1.1 mg/ml in 100 mM sodium (+)/phosphate (“NaPi”, pH 7.4, Sigma Aldritch) buffer, 5 mM magnesium chloride (“MgCl2, Sigma Aldritch) buffer, is pre-warmed at 37° C.;
2) 5 μl of 50 μM test compound (98.6% ACN, 1.4% DMSO) is added to the same tube and pre-incubated at 37° C. for 5 minutes; and
3) The reaction is initiated by the addition of 50 μl of pre-warmed 10 mM NADPH solution in 100 mM NaPi, pH 7.4.
Reaction components are mixed well and then 65 μl are immediately transferred into 130 μl quench/stop solution (zero-time point, T0). The reactions are incubated at 37° C. for 5, 10, 15, 30 and 45 minutes and at each time-point a 65 μl aliquot is transferred into 130 μl of quench solution. ACN containing Internal Standard (100 ng/ml), is used as the quench solution to terminate metabolic reactions. The quenched mixtures are centrifuged at 1500 rpm (˜500×g) in an Allegra X-12 centrifuge, SX4750 rotor (Beckman Coulter Inc., Fullerton, Calif.) for fifteen minutes to pellet denatured microsomes. A volume of 90 μl of supernatant extract, containing the mixture of parent compound and its metabolites, is then transferred to a separate 96-well plate for LC/MS-MS analysis to determine the percent of parent compound that is remaining in the mixture. Peak integration is performed on all samples using the Hepatic Clearance Calculator of QuickCalc by Gubbs, Inc. The percent remaining calculation is performed by comparing the LC-MS/MS peak areas from the samples at each time point to those from the T0 samples for each compound. T1/2 values are calculated from linear regression of the LN (% Remaining) over time, and the slope of that regression (Kel) is used to calculate T1/2, using the following equation: T1/2=−0.693/Kel.

| solubility (Aqueous solubility assay) [µg/mL] | bioavailability ([1]; 5 mg/kg as a microsuspension) [%] | half-life at 0.5 µM (in vitro) [h] | bioavailability ([1]; 2 mg/kg as a microsuspension) [%] | SMILES | inhibition at 10 µM [2] [%] |
| --- | --- | --- | --- | --- | --- |
| 1 (≈ 1.88 µM) | 120 | 1.3 |  | Cc1nc(-n2cc(Cl)c(OC3CCN(c4ncc(Cl)cn4)CC3)cc2=O)ccc1N1CC[C@H](O)C1=O [Example 3, (S)-5-chloro-4-((1-(5-chloropyrimidin-2-yl)piperidin-4-yl)oxy)-5′-(3-hydroxy-2-oxopyrrolidin-1-yl)-6′-methyl-2H-[1,2′-bipyridin]-2-one] | 9 |
| 2 (≈ 3.76 µM) |  | 1.62 | 122 | Cc1nc(-n2cc(Cl)c(OC3CCN(c4ncc(Cl)cn4)CC3)cc2=O)ccc1N1CC[C@@H](O)C1=O [Example 4, (R)-5-chloro-4-((1-(5-chloropyrimidin-2-yl)piperidin-4-yl)oxy)-5′-(3-hydroxy-2-oxopyrrolidin-1-yl)-6′-methyl-2H-[1,2′-bipyridin]-2-one] | 7 |
